pIC50: −log10 of the molar value.

The test system of series [1] is L6. Description: Cytotoxicity against rat L6 cells after 70 hrs by alamar blue staining based fluorometric assay. It counts as cell-based. As to conditions: L6, 70 h.
The subject of series [2] is Plasmodium falciparum. Description: Antiplasmodial activity against erythrocytic stage of chloroquine-sensitive Plasmodium falciparum NF54 assessed as reduction in [3H]hypoxanthine incorporation after 48 hrs by liquid scintillation counting method. It counts as functional.
The nature of series [3]: Selectivity index, ratio of IC50 for rat L6 cells to IC50 for erythrocytic stage of chloroquine-sensitive Plasmodium falciparum NF54. It counts as toxicity. As to conditions: read-out: Ratio IC50.
Series [4] is described as follows: Selectivity index, ratio of IC50 for rat L6 cells to IC50 for erythrocytic stage of chloroquine/pyrimethamine-resistant Plasmodium falciparum K1. It counts as toxicity. Particulars: L6 cells versus erythrocytic stage Plasmodium falciparum K1, read-out: Ratio IC50.
Series [5] relates to Plasmodium berghei. As to the kind of experiment: Antiplasmodial activity against erythrocytic stage of GFP-fused Plasmodium berghei ANKA infected in NMRI mouse assessed as mouse survival days at 50 mg/kg, ip for 4 days measured up to 30 days post infection (reference value: 4 day). Format: functional.
Series [6] concerns Plasmodium falciparum. Description: Antiplasmodial activity against erythrocytic stage of chloroquine/pyrimethamine-resistant Plasmodium falciparum K1 assessed as reduction in [3H]hypoxanthine incorporation after 48 hrs by liquid scintillation counting method. Format: functional.
Series [7] has as its system Plasmodium berghei. As to the kind of experiment: Antiplasmodial activity against erythrocytic stage of GFP-fused Plasmodium berghei ANKA infected in NMRI mouse assessed as reduction in parasitaemia at 50 mg/kg, ip for 4 days measured at 24 hrs post last dose by FACS analysis relative to control. It counts as functional. More on the design: scale not given: the % may be the effect or the level left.

In series [8] the test system is Plasmodium berghei. Description: Antiplasmodial activity against erythrocytic stage of GFP-fused Plasmodium berghei ANKA infected in NMRI mouse assessed as mouse survival days at 10 mg/kg, ip for 4 days measured up to 30 days post infection (reference value: 4 day). It counts as functional.

For `O=C(c1cc(-c2ccc(CN3CCOCC3)cc2)nc2ccc(F)cc12)N1CCNCC1`, the pIC50 (usually the negative decadic logarithm of the IC50, by convention in mol/L) in series [1] (read-out: IC50) is 3.98; in series [2], 5.11. Besides, the selectivity ratio in series [3] was 13.5.
On to `O=C(Nc1ccccc1)c1cc(-c2ccc(CN3CCOCC3)cc2)nc2ccc(F)cc12`, for which the negative logarithm of the IC50 (pIC50) in series [1] (read-out: IC50) is 4.75; in series [2] it was 5.75. For the same molecule, the selectivity ratio in series [3] is 10.1.
The corresponding values for `CC(C)(C)OC(=O)N1CCN(C(=O)c2cc(-c3ccc(CN4CCOCC4)cc3)nc3ccc(F)cc23)CC1` are 4.53, 4.86 and 2.14.
The corresponding values for `O=C(c1cc(-c2ccc(CN3CCOCC3)cc2)nc2ccc(F)cc12)N1CCN(c2ccccc2)CC1` are 4.61, 5.31 and 5.
The matching figures for `O=C(Nc1ccc([N+](=O)[O-])cc1)c1cc(-c2ccc(CN3CCOCC3)cc2)nc2ccc(F)cc12`: 4.86, 6.68 and 65.7.
`Fc1ccc2nc(-c3ccc(CN4CCOCC4)cc3)cc(CN3CCN(c4ccccc4)CC3)c2c1`: the pIC50 in series [1] (read-out: IC50) was 4.50; in series [2], 4.88. Moreover, the selectivity ratio in series [3] was found to be 2.4.
The matching figures for `CN(C)c1ccc(NC(=O)c2cc(-c3ccc(CN4CCOCC4)cc3)nc3ccc(F)cc23)cc1`: 4.91, 5.96 and 11.4.
Turning to `O=C(c1cc(-c2ccc(CN3CCOCC3)cc2)nc2ccc(F)cc12)N1CCN(C(=O)c2cc(-c3ccc(CN4CCOCC4)cc3)nc3ccc(F)cc23)CC1`, the negative logarithm of the IC50 (pIC50) in series [1] (read-out: IC50) is 3.89; in series [2], 5.17. Moreover, in series [3], the selectivity ratio came out at 19.
`O=C(NCCN1CCN(c2ccccc2)CC1)c1cc(-c2ccc(CN3CCOCC3)cc2)nc2ccc(F)cc12`: the negative-log IC50 (pIC50) in series [1] (read-out: IC50) was 5.40; in series [2], 8.00; in series [6], 8.15. The selectivity ratio in series [3] came out at 394; in series [4] it was 563. Moreover, the MSD in series [5] was found to be 4 days. The Activity in series [7] turned out to be 17.1%.
`Fc1ccc2nc(-c3ccc(CN4CCOCC4)cc3)cc(CN3CCNCC3)c2c1`: the figures for the pIC50 in series [1] (read-out: IC50) and in series [2] were 4.84 and 5.66, respectively. Moreover, in series [3], the selectivity ratio turned out to be 6.62.
For the molecule `N=C(N)N1CCN(C(=O)c2cc(-c3ccc(CN4CCOCC4)cc3)nc3ccc(F)cc23)CC1`, the pIC50 in series [1] (read-out: IC50) is 3.68; in series [2], 4.31. Besides, the selectivity ratio in series [3] is 4.26.
The corresponding values for `CN1CCN(C(=O)c2cc(-c3ccc(CN4CCOCC4)cc3)nc3ccc(F)cc23)CC1` are 3.87, 5.29 and 26.6.
The matching figures for `CCN(CC)C(=O)c1cc(-c2ccc(CN3CCOCC3)cc2)nc2ccc(F)cc12`: 3.92, 4.90 and 9.68.
As to `O=C(NCCN1CCNCC1)c1cc(-c2ccc(CN3CCOCC3)cc2)nc2ccc(F)cc12`, the negative logarithm of the IC50 (pIC50) is 4.26 in series [1] (read-out: IC50) and 6.28 in series [2]. For the same molecule, in series [3], the selectivity ratio amounted to 103.
The corresponding values for `COc1ccc(NC(=O)c2cc(-c3ccc(CN4CCOCC4)cc3)nc3ccc(F)cc23)cc1` are 5.17, 6.23 and 11.5.
On to `CC(C)(C)OC(=O)N1CCN(CCNC(=O)c2cc(-c3ccc(CN4CCOCC4)cc3)nc3ccc(F)cc23)CC1`, for which the negative-log IC50 (pIC50) in series [1] (read-out: IC50) was 4.87; in series [2], 9.68; in series [6], 9.06. For the same molecule, the selectivity ratio is 64300 in series [3] and 15500 in series [4]. For the same molecule, the MSD in series [5] turned out to be 8.3 days. The Activity in series [7] was determined as 98.1%.
On to `CN1CCN(Cc2cc(-c3ccc(CN4CCOCC4)cc3)nc3ccc(F)cc23)CC1`, for which the values for the pIC50 in series [1] (read-out: IC50) and in series [2] were 4.75 and 5.70, respectively. The selectivity ratio in series [3] was found to be 8.94.
For the molecule `CN1CCN(CCNC(=O)c2cc(-c3ccc(CN4CCOCC4)cc3)nc3ccc(F)cc23)CC1`, the pIC50 was 4.09 in series [1] (read-out: IC50) and 5.96 in series [2]. Besides, the selectivity ratio in series [3] was found to be 75.2.
Take `C[C@@H]1CC[C@H]2[C@@H](C)C(=O)O[C@@H]3O[C@@]4(C)CC[C@@H]1[C@]32OO4` [ARTEMISININ]: the selectivity ratio in series [4] was found to be 70300. The negative-log IC50 (pIC50) in series [6] was 8.19.
Consider `O=C(NCCN1CCCC1)c1cc(-c2ccc(CN3CCOCC3)cc2)nc2ccc(F)cc12` [CABAMIQUINE], for which the negative-log IC50 (pIC50) is 4.55 in series [1] (read-out: IC50), 9.89 in series [2] and 9.66 in series [6]. For the same molecule, the selectivity ratio was 219000 in series [3] and 129000 in series [4].
Regarding `CCN(CC)CCCC(C)Nc1ccnc2cc(Cl)ccc12` (stereo unspecified) [CHLOROQUINE], in series [8], the MSD was determined as 20 days.
Turning to `COc1cc([C@@H]2c3cc4c(cc3[C@H](O)[C@H]3COC(=O)[C@H]23)OCO4)cc(OC)c1OC` [PODOFILOX], in series [1], the pIC50 was 7.92.

For the origin of these results see ChEMBL document CHEMBL4004888, “New derivatives of quinoline-4-carboxylic acid with antiplasmodial activity” (Bioorg Med Chem, 2017).
